Results taken from paper PMC2606621 (Journal of neurochemistry, 2008).
Where two headings read alike, the source gives them in different places. Values belong to the compound of their own block, whether it stands above or below them.

Legend:
cannabinoid CB1 receptor = cannabinoid CB1 receptor (Rattus norvegicus, UniProt P20272); test: CB1 receptor binding assay; type: in vivo; details: for effect on Bmax of the CB1 receptor: imipramine alone
[1] = tested on: endocannabinoids AEA and 2-AG; test: Plasma endocannabinoid content; type: in vivo, rat; details: imipramine 10 mg/kg, 21 days; p > 0.05
[2] = target: T1, fatty acid amide hydrolase (FAAH) (Rattus norvegicus, UniProt P97612); test: Fatty acid amide hydrolase activity assay; type: in vivo; details: for effect on Vmax of FAAH: combination of CUS and imipramine, p < 0.05; for Km: read-out: binding affinity (Km) of fatty acid amide hydrolase for anandamide
T1 sequence (P97612 1-579): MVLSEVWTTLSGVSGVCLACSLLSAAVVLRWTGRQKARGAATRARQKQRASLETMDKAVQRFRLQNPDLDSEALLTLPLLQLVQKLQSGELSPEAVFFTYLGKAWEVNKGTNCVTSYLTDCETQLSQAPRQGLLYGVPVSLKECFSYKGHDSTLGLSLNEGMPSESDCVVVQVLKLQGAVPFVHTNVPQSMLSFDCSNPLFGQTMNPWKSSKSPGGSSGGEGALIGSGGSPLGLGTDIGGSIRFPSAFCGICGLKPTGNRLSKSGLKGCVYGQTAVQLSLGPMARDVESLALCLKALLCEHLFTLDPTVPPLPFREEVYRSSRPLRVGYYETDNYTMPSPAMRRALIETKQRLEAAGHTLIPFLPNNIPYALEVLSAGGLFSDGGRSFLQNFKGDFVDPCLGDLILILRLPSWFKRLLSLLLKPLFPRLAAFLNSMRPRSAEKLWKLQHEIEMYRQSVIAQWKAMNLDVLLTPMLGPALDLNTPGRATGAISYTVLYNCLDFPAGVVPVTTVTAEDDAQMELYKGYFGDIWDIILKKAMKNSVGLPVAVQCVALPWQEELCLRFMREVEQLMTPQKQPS

[3] = tested on: endocannabinoids AEA and 2-AG; test: Brain tissue endocannabinoid content; details: imipramine alone; any brain region examined
CB1 receptor = details: ref Hill et al., cited from earlier work

cannabinoid CB1 receptor, sequence (P20272 whole entry): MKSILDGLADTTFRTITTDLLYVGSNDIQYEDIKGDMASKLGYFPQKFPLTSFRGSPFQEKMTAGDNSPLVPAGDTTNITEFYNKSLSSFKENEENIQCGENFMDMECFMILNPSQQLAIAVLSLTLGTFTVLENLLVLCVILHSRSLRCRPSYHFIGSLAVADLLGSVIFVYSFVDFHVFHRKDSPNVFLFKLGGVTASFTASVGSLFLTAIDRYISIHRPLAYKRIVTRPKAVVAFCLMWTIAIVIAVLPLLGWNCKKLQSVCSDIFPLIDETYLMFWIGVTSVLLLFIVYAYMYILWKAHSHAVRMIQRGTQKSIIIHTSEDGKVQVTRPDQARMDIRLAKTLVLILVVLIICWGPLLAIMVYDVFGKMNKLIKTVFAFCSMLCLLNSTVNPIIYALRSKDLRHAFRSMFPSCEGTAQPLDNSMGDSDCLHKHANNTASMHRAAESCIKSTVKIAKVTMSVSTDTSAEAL

effect on Bmax of the CB1 receptor (increase) (cannabinoid CB1 receptor; amygdala, CUS and imipramine combined, p > 0.05): did not occur
effect on Bmax of the CB1 receptor (cannabinoid CB1 receptor; amygdala, p < 0.05): increase
effect on CB1 receptor agonist binding site density (Bmax) (cannabinoid CB1 receptor; hippocampus, imipramine 10 mg/kg, 21 days (ANOVA main effect)): unaffected
effect on Bmax for [3H]CP55940 binding to the CB1 receptor (cannabinoid CB1 receptor; hypothalamus, CUS and imipramine together vs control, p > 0.05): no significant difference
effect on CB1 receptor binding site density (Bmax) (cannabinoid CB1 receptor; midbrain, imipramine 10 mg/kg, 21 days, p < 0.05): significant reduction
effect on agonist binding site density (Bmax) of the CB1 receptor (cannabinoid CB1 receptor; prefrontal cortex, imipramine 10 mg/kg, 21 days (ANOVA main effect)): no effect
effect on Bmax of the CB1 receptor (reduction) (cannabinoid CB1 receptor; ventral striatum, CUS and imipramine concurrently, p > 0.05): not seen
effect on Bmax of the CB1 receptor (cannabinoid CB1 receptor; ventral striatum, p < 0.01): significant reductions
effect on maximal hydrolytic activity (Vmax) of FAAH ([2]; imipramine alone, any brain region examined): no effects
effect on Vmax of FAAH ([2]; midbrain): increased
Km ([2]; Amygdala, CON/IMI (no stress, imipramine 10 mg/kg, 21 days)): 0.95 nM
Km ([2]; Amygdala, CUS/IMI (21 days CUS + imipramine 10 mg/kg)): 0.53 nM
Km ([2]; Hippocampus, CON/IMI (no stress, imipramine 10 mg/kg, 21 days)): 0.8 nM
Km ([2]; Hippocampus, CUS/IMI (21 days CUS + imipramine 10 mg/kg)): 0.71 nM
Km ([2]; Hypothalamus, CON/IMI (no stress, imipramine 10 mg/kg, 21 days)): 0.44 nM
Km ([2]; Hypothalamus, CUS/IMI (21 days CUS + imipramine 10 mg/kg)): 0.55 nM
Km ([2]; Midbrain, CON/IMI (no stress, imipramine 10 mg/kg, 21 days)): 0.6 nM
Km ([2]; Midbrain, CUS/IMI (21 days CUS + imipramine 10 mg/kg)): 0.61 nM
Km ([2]; Prefrontal Cortex, CON/IMI (no stress, imipramine 10 mg/kg, 21 days)): 0.65 nM
Km ([2]; Prefrontal Cortex, CUS/IMI (21 days CUS + imipramine 10 mg/kg)): 0.46 nM
Km ([2]; Ventral Striatum, CON/IMI (no stress, imipramine 10 mg/kg, 21 days)): 0.37 nM
Km ([2]; Ventral Striatum, CUS/IMI (21 days CUS + imipramine 10 mg/kg)): 0.69 nM
effect on Vmax of FAAH ([2]; ventral striatum): increased
Compound: CN(C)CCCN1c2ccccc2CCc2ccccc21 [imipramine]
effect on plasma 2-AG content [1]: unaffected
effect on plasma AEA content [1]: neither an effect
effect on tissue AEA content [3]: no effect

Compound: CNCCCN1c2ccccc2CCc2ccccc21 [desipramine]
effect on CB1 receptor binding (CB1 receptor; hippocampus of unstressed rats, 2006): up-regulation
effect on CB1 receptor agonist binding site density (CB1 receptor; hypothalamus, unstressed rats, chronic treatment, 2006): increases

Compound: C[C@]12C[C@H](O)[C@H]3[C@@H](CCC4=CC(=O)CC[C@@]43C)[C@@H]1CC[C@@H]2C(=O)CO [corticosterone]
effect on CB1 receptor binding and protein expression (CB1 receptor; hippocampus, 21 days administration, absence of stress, 2008a): comparable reduction
